Measured values reported in patent US20210401928A1, “ANTI-OBESITY AGENT, POLLAKIURIA IMPROVING AGENT, AND AUTONOMIC NERVOUS ACTIVITY REGULATOR” (ASAHI GROUP HOLDINGS, LTD., priority 2018, published 2021).
Ends that are not written are not given here.

Tested on: rat spontaneous urination
Assay: Rat spontaneous urination test (metabolism cage, 7 days ingestion from drinking)
Type: in vivo
Settings: aqueous 0.1 mg/mL LNDP solution from drinking for 7 days
Description: It was confirmed from Test Example 2 that LNDP promotes the efferent hypogastric nerve activity, and it was confirmed from Test Example 3 that LNDP inhibits the efferent the pelvic splanchnic nerve activity. Influence on the bladder, which is one of the internal organs dominated by these nerves, was therefore investigated.
Male Wistar rats which are 13 weeks old were received, and quarantined and acclimated in a thermostat animal room at 18 to 28° C. in a cycle including a 12-hour light period and a 12-hour dark period for 1 week, and ten 14- to 16-week-old rats per group were tested. An aqueous 0.1 mg/mL LNDP solution or water was ingested from drinking for 7 days, and the urination amount was measured as weight with an electronic balance installed under a urine-collecting opening in raising with a metabolism cage. The weight data of the electronic balance every minute were automatically inputted into a computer. […] The total urination amount and the frequency of urination per day were found, and the urine amount per one time of urination (=the total urination amount per day/the frequency of urination per day) was calculated as to an individual of each group. […] As to the comparison of the test substance and ingestion days with respect to each measured value, two-way analysis of variance (two-way ANOVA) with replication was performed.

## NIPPLTQTPVVVPPFLQPE [LNDP, Asn-Ile-Pro-Pro-Leu-Thr-Gln-Thr-Pro-Val-Val-Val-Pro-Pro-Phe-Leu-Gln-Pro-Glu]
  significant difference in change in body weight vs water ingestion group: not observed
  significant difference in general symptoms vs water ingestion group: not observed
